According to patent US9497970B2, “Pesticide compounds” (priority 2013, dated 2016):

Columns and labels:
Type in all cases: in vivo
[1] = tested on: Diamond Back Moth (Plutella xylostella); test: B.1 Diamond Back Moth (Plutella xylostella), cabbage leaf dip; conditions: foliar, 500 ppm, 3rd instar larvae on dipped cabbage leaves, 72 hours after treatment, in comparison with untreated controls, read-out: mortality
In short: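 Cabbage leaves dipped in compound in 1:1 water:acetone with 0.01% Kinetic HV surfactant, air-dried, then infested with ten 3rd-instar larvae on moist filter paper. Mortality scored at 72 h after treatment; feeding damage rated on a 0-100% scale.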

[2] = tested on: Orchid thrips (dichromothrips corbetti); test: B.2 Orchid thrips (dichromothrips corbetti), floral-immersion technique; conditions: adult thrips on dipped orchid petals, 72 hours after treatment, in comparison with untreated controls
Description: B.2 Orchid thrips (dichromothrips corbetti)
Dichromothrips corbetti adults used for bioassay were obtained from a colony maintained continuously under laboratory conditions. For testing purposes, the test compound is diluted in a 1:1 mixture of acetone:water (vol:vol), plus Kinetic HV at a rate of 0.01% v/v.
Thrips potency of each compound was evaluated by using a floral-immersion technique. All petals of individual, intact orchid flowers were dipped into treatment solution and allowed to dry in Petri dishes. Treated petals were placed into individual resealable plastic along with about 20 adult thrips. All test arenas were held under continuous light and a temperature of about 28° C. for duration of the assay. After 3 days, the numbers of live thrips were counted on each petal. The percent mortality was recorded 72 hours after treatment.

[3] = tested on: Boll Weevil (Anthonomus grandis); test: B.3 Boll Weevil (Anthonomus grandis), microtiter plate insect diet; conditions: 120 h, 800 ppm, sprayed onto insect diet, 5 days, in comparison with untreated controls, read-out: mortality (egg and larval)
In short: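 Compounds in 25% DMSO/water sprayed at several concentrations onto insect diet in microtiter wells holding 5–10 A. grandis eggs, two replicates. Plates kept 5 days at about 25±1 °C and 75±5% RH. Egg and larval mortality scored visually.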

[4] = tested on: Mediterranean Fruitfly (Ceratitis capitata); test: B.6 Mediterranean Fruitfly (Ceratitis capitata), microtiter plate insect diet; conditions: 120 h, 800 ppm, sprayed onto insect diet, 5 days, in comparison with untreated controls, read-out: mortality (egg and larval)
In short: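 Insect diet with 50-80 C. capitata eggs sprayed with compounds formulated in 75% water/25% DMSO, at different concentrations, two replications. Incubation at about 28±1° C and 80±5% relative humidity for 5 days, then egg and larval mortality assessed visually.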

[5] = tested on: Tobacco Budworm (Heliothis virescens); test: B.7 Tobacco Budworm (Heliothis virescens) I, microtiter plate insect diet; conditions: 120 h, 800 ppm, sprayed onto insect diet, 5 days, in comparison with untreated controls, read-out: mortality (egg and larval)
In short: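 96-well plates with insect diet and 15-25 H. virescens eggs; compounds in 75% water/25% DMSO sprayed onto diet at several concentrations, two replicates. Plates held at about 28±1° C. and 80±5% relative humidity for 5 days, then egg and larval mortality scored visually.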

[6] = tested on: Green Peach Aphid (Myzus persicae); test: B.9 Green Peach Aphid (Myzus persicae), sprayed bell pepper plants; conditions: 120 h, infested bell pepper plants sprayed, after 5 days, in comparison with untreated controls
In short: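 Bell pepper plants at first true-leaf stage, infested with 30-50 aphids each, were sprayed electrostatically with compound in 50% acetone:water plus 0.01% nonionic surfactant. Held at about 25° C, 24-hr light, 20-40% RH. Mortality versus untreated controls scored after 5 days.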

[7] = tested on: Southern Armyworm (Spodoptera eridania), 2nd Instar Larvae; test: B.10 Southern Armyworm (Spodoptera eridania), 2nd Instar Larvae, sprayed lima bean plants; conditions: 96 h, 300 ppm, larvae on sprayed lima bean plants, 4 days after treatment, in comparison with untreated controls, read-out: mortality
In short: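 Lima bean plants at 1st true leaf stage sprayed electrostatically with compound in 50% acetone:50% water plus 0.01% nonionic surfactant, then infested with about 10 to 11 2nd instar larvae. Mortality and reduced feeding assessed 4 days after treatment at about 25° C versus untreated plants.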

[8] = tested on: Yellow Fever Mosquito (Aedes aegypti); test: whole plant or invertebrate; conditions: 48 h, freshly hatched larvae in tap water, 2 days, in comparison with untreated controls, read-out: mortality (larval)
In short: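 Freshly hatched A. aegypti larvae, 5–15 per well, were held in 200 μl tap water. Compounds formulated in 75:25 water:DMSO were sprayed at various concentrations, 2.5 μl per well by micro-atomizer, in two replicates.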

[9] = tested on: Orchid thrips (dichromothrips corbetti); test: B.12 Orchid thrips (dichromothrips corbetti), floral-immersion technique; conditions: adult thrips on dipped orchid petals, 72 hours after treatment, in comparison with untreated controls
In short: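 Whole orchid flower petals were dipped in compound in 1:1 acetone:water with 0.01% v/v Kinetic HV, dried, and enclosed with about 20 adult thrips. They were held under continuous light at about 28° C. Live thrips were counted and percent mortality recorded at 72 hours.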

Cc1cccc(C)c1NC(=S)N/N=C/c1ccc2c(ccc3c2ncn3-c2ccc(OC(F)(F)F)cc2)c1 [C-1, 1-(2,6-dimethylphenyl)-3-[(E)-[3-[4-(trifluoromethoxy)phenyl]benzo[e]benzimidazol-7-yl]methyleneamino]thiourea]
≥ 75%: mortality at 500 ppm [1] | mortality at 300 ppm [2] | mortality at 800 ppm [3] | mortality at 800 ppm [4] | mortality at 800 ppm [5] | mortality at 800 ppm [6] | mortality at 300 ppm [7] | mortality at 800 ppm [8] | mortality at 500 ppm [9]
